Measurements published in patent US20090209527A1, “Methods for Using Rapamycin Analogues in the Treatment of Neurological Disorders” (Wyeth, priority 2008, published 2009).
Where two headings read alike, the source gives them in different places.

Tests used:
[1] = test system: cortical neuron cultures; test: Cortical neuron assay (neurite outgrowth in dissociated cortical neuron cultures); type: cell-based, rat; conditions: Rattus norvegicus, Cortical neurone; 72 hours treatment, neurite outgrowth; read-out: EC50 in cortical neuron assays
Protocol: Dissociated cortical neuron cultures were prepared as previously described (Liu et al., Screening of Immunophilin Ligands by Quantitative Analysis of Neurofilament Expression and Neurite Outgrowth in Cultured Neurons and Cells, J. Neurosci. Methods, 2007 Jul. 30; 163(2):310-20).
Briefly, embryonic day 15 rat fetuses were collected and dissected in ice-cold PBS. Dissected cortices were pooled together and transferred to an enzymatic dissociation medium containing papain. After 30 minutes, the tissue was mechanically triturated with a fire-polished glass Pasteur pipette. Single-cell suspensions in complete media were seeded on poly-L-ornithine and laminin coated 96-well plates. After 24 hours, cultures were treated with various concentrations of compound for 72 hours. The cultures were then fixed and stained with an anti-tubulin primary antibody (TUJ-1) and a fluorescent-tagged secondary antibody. Neurite outgrowth was determined by using the Enhanced Neurite Outgrowth (ENO) algorithm with the Cellomics ArrayScan and expressed as average neurite length or total neurite length per cell.

[2] = test system: Mesencephalic dopaminergic neuron cultures; test: Dopaminergic uptake assay (3H-dopamine uptake after MPP+ exposure); type: cell-based, rat; conditions: read-out: EC50 in dopaminergic uptake assays
Protocol: Mesencephalic dopaminergic neuron cultures were prepared as described in Pong et al., J. Neurochem. 69: 986-994, 1997, which is incorporated herein by reference in its entirety. Embryonic day 15 (E15) rat fetuses were collected and dissected in ice-cold phosphate-buffered saline (PBS). The ventral piece of tissue compromising the mesencephalic dopaminergic region was dissected out. Dissected pieces of tissue were pooled together and transferred to an enzymatic dissociation medium containing 20 IU/mL papain in Earle's balanced salt solution (Worthington Biochemical, Freehold, N.J., USA) and incubated for 60 minutes at 37° C. After enzymatic dissociation, the papain solution was aspirated and the tissue mechanically triturated with a fire-polished glass Pasteur pipette in complete medium (equal volumes of minimum essential medium (MEM) and F-12 nutrient mixture (GibcoBRL) supplemented with 0.1 mg/mL apotransferrin and 2.5 μg/mL insulin) containing 2,000 IU/mL DNase and 10 mg/mL ovomucoid protease inhibitor.
For dopamine uptake experiments, single-cell suspensions in complete media were seeded on poly-L-ornithine and laminin coated 24-well plates. The cultures were maintained for seven days prior to experimentation. […]
After 48 hours growth of mesencephalic dopaminergic neuron cultures following MPP+ exposure, high-affinity 3H-dopamine uptake was performed using a modified method described by Prochiantz et al., Nature 293: 570-572, 1981, which is incorporated herein by reference. Cultures were washed with pre-warmed PBS containing 5.6 mM glucose and 1 mM ascorbic acid. Cultures were then incubated for 15 minutes at 37° C. with 50 nM 3H-dopamine (31 Ci/mmol, DuPont-NEN, Wilmington, Del., USA). The cultures were washed twice with buffer and lysed with 0.5N NaOH. The lysate was transferred to a scintillation vial containing Ultima Gold scintillation cocktail and radioactivity was determined with a liquid scintillation counter. Alternatively, culture lysates can be washed twice with buffer, incubated for 2 hours at room temperature with Optiphase Supermix scintillation cocktail (Wallac Scintillation Products, Gaithersburg, Md., USA), and radioactivity measured with a liquid scintillation counter.

[3] = test system: Spinal cord neuron cultures; test: Spinal cord neuron assay; type: cell-based; conditions: Rattus norvegicus, 72 hours treatment, read-out: EC50 in spinal cord neuron assays
Protocol: Spinal cord neuron cultures were prepared from embryonic day 15 (E15) rat embryos (Liu et al., Screening of Immunophilin Ligands by Quantitative Analysis of Neurofilament Expression and Neurite Outgrowth in Cultured Neurons and Cells, J. Neurosci. Methods, 2007 Jul. 30; 163(2):310-20). The embryos were collected and their spinal cords were removed in ice-cold phosphate-buffered saline (PBS) without Ca^2+ and Mg^2+. Dissected pieces of spinal cord tissue were pooled together and transferred to an enzymatic dissociation media containing 20 IU/mL papain in Earle's balanced salt solution (Worthington Biochemical, Freehold, N.J.) and incubated for 30 minutes at 37° C. After enzymatic dissociation, the papain solution was aspirated and the tissue mechanically triturated with a fire-polished Pasteur pipette in complete media [Neurobasal Medium with B-27 supplement (Gibco, Grand Island, N.Y.), 100 IU/mL penicillin, 100 µg/mL streptomycin, […] aphidicolin, 0.5 mM glutamate] containing 2,000 IU/mL DNase and 10 mg/mL ovomucoid protease inhibitor. Single-cell suspensions in complete media were plated on pre-coated poly-L-ornithine/laminin 96-well plates (Becton-Dickinson, Bedford, Mass.) at a density of 1.0×10^4 cells/well. Spinal cord neurons were maintained for 24 hours then exposed to vehicle or various concentrations of compound for 72 hours.

Compound	EC50 ([2]; Rattus norvegicus, Neuron)	EC50 [3]	EC50 [2]	EC50 [1]
CO[C@H]1C[C@@H]2CC[C@@H](C)[C@@](O)(O2)C(=O)C(=O)N2CCCC[C@H]2C(=O)O[C@H]([C@H](C)C[C@@H]2CC[C@@H](OC(=O)C(C)(CO)CO)[C@H](OC)C2)CC(=O)[C@H](C)/C=C(\C)[C@@H](O)[C@@H](OC)C(=O)[C@H](C)C[C@H](C)/C=C/C=C/C=C/1C [CCI-779, reference compound]	> 1000 nM			> 1000 nM
CO[C@H]1C[C@@H]2CC[C@@H](C)[C@@](O)(O2)C(=O)C(=O)N2CCCC[C@H]2C(=O)O[C@H]([C@H](C)C[C@@H]2CC[C@@H](O)[C@H](OC)C2)CC(=O)[C@H](C)/C=C(\C)[C@@H](O)[C@@H](OC)C(=O)[C@H](C)C[C@H](C)[C@@H]2C=C[C@H](/C=C/1C)ON2c1ccccc1 [Example 1, 9,27-dihydroxy-3-{2-[4-hydroxy-3-methoxycyclohexyl]-1-methylethyl}-10,21-dimethoxy-6,8,12,14,20,26-hexamethyl-37-phenyl-4,9,10,12,13,14,15,18,21,22,23,24,25,26,27,32,33,34,34a-nonadecahydro-3H-23,27-epoxy-18,15-(epoxyimino)pyrido[2,1-c][1,4]oxazacyclohentriacontine-1,5,11,28,29(6H,31H)-pentone]	< 1000 nM	< 1000 nM		< 1000 nM
CO[C@H]1C[C@@H]2CC[C@@H](C)[C@@](O)(O2)C(=O)C(=O)N2CCCC[C@H]2C(=O)O[C@H]([C@H](C)C[C@@H]2CC[C@@H](O)[C@H](OC)C2)CC(=O)[C@H](C)/C=C(\C)[C@@H](O)[C@@H](OC)C(=O)[C@H](C)C[C@H](C)C2C=CC(/C=C/1C)ON2c1c(Cl)cccc1Cl [Example 3]		< 1000 nM		< 1000 nM
Rapamycin phenyltriazolinedione			< 1000 nM	

Second part, led by results:

EC50 ([2]; Rattus norvegicus, Neuron)	EC50 [3]	EC50 [2]	Compound	EC50 [1]
< 1000 nM	< 1000 nM		CO[C@H]1C[C@@H]2CC[C@@H](C)[C@@](O)(O2)C(=O)C(=O)N2CCCC[C@H]2C(=O)O[C@H]([C@H](C)C[C@@H]2CC[C@@H](OC(=O)C(C)(C)Cc3ccccn3)[C@H](OC)C2)CC(=O)[C@H](C)/C=C(\C)[C@@H](O)[C@@H](OC)C(=O)[C@H](C)C[C@H](C)C2C=CC(/C=C/1C)ON2c1ccccc1 [Example 6, 9,27-dihydroxy-3-{-2-[4-hydroxy-3-methoxycyclohexyl]-1-methylethyl}-10,21-dimethoxy-6,8,12,14,20,26-hexamethyl-37-phenyl-4,9,10,12,13,14,15,18,21,22,23,24,25,26,27,32,33,34,34a-nonadecahydro-3H-23,27-epoxy-18,15-(epoxyimino) pyrido[2,1-c][1,4]oxazacyclohentriacontine-1,5,11,28,29(6H,31H)-pentone ester with-2,2-dimethyl-3′-(pyridin-2-yl)-propionic acid]	
> 1000 nM			CO[C@H]1C[C@@H]2CC[C@@H](C)[C@@](O)(O2)C(=O)C(=O)N2CCCC[C@H]2C(=O)O[C@H]([C@H](C)C[C@@H]2CC[C@@H](O)[C@H](OC)C2)CC(=O)[C@H](C)/C=C(\C)[C@@H](O)[C@@H](OC)C(=O)[C@H](C)C[C@H](C)/C=C/C=C/C=C/1C [rapamycin]	> 1000 nM
